According to publication PMC10420963, “Exploring Novel Drug Combinations: The Therapeutic Potential of Selanyl Derivatives for Leishmania Treatment” (Molecules, 2023):
Read-outs that look alike come from different tables or passages of the source.

Legend:
[1] = tested on: L. infantum promastigotes; test: Leishmanicidal activity against L. infantum promastigotes (MTT assay); type: cell-based, Leishmania infantum
Description: (§1) Promastigotes. L. major (clone VI, MHOM/IL/80) and L. infantum (clone, BCN-150) parasites were cultured at 26 °C under continuous shaking in M199 1× medium (Sigma, St. Louis, MO, USA) supplemented with heat-inactivated fetal bovine serum (FBS), 25 mM HEPES (pH 7), 0.1 mM adenine, 0.0005% (w/v) haemin, […], 0.0005% (w/v) biotin, 100 IU/mL penicillin and […]. For each experiment, the culture medium was changed everyday in order to achieve parasite in exponential growth phase.
(§2) In order to determine the leishmanicidal activity of the compounds obtained in this study, promastigotes of L. major and L. infantum strains were seeded in 96-well plates (3 ×·10^6 parasite/mL) in exponential growth phase at increasing concentrations (1–500 μM) of the compounds and maintained at 26 °C. After 48 h of incubation, the IC50 was determined by MTT assay. The absorbance was measured in a MultiskanEX photometric plate reader for microplates at 540 nm. Data were obtained from three independent experiments performed in triplicate.

[2] = tested on: L. infantum promastigotes; test: Drug combination (FICI) assay on L. infantum promastigotes; type: cell-based, Leishmania infantum; conditions: for ƩFICI50: 48 h; for ƩFICI: combined with the reference drugs AMB, MIL, and PMN (bound for all three)
Description: To determine the nature of the interaction, it is crucial to choose the appropriate doses. Thus, the evaluation of the combination was carried out by a dose–response linear dilution experiment, for which the IC50 value of each substance alone was determined and multiplied by 0.2×, 0.4×, 0.6×, 0.8×, 1×, 1.2×, 1.4×, 1.6×, 1.8×, and 2× times, in order to obtain the different dilutions. […] Compound A6 stood out in this experiment, with synergistic interactions in combination with MIL (ƩFICI = 0.44), borderline synergistic interaction combined with PMN (ƩFICI = 0.54), but without interaction when combined with AMB (ƩFICI = 0.70).
The fractional inhibitory concentration index (FICI) was used to describe the interaction between the lead compounds A4–A6 and A8 with AmB, PMN and MIL. The compounds were studied in vitro against L. infantum promastigotes after 48 h of treatment. For this purpose, different increasing concentration ratios (0.2×, 0.4×, 0.6×, 0.8×, 1×, 1.2×, 1.4×, 1.6×, 1.8× and 2× times the IC50 of the compounds) were established. Finally, synergy was defined as FICI < 0.5, non-interaction as 0.5 < FICI < 4, and antagonism as FICI > 4. FICI values were obtained from four independent experiments.

[3] = Cytotoxicity in PMA-differentiated THP-1 macrophages (MTT assay); type: cell-based; conditions: human, pH 7.2, 48 h of treatment, read-out: THP-1 Cells CC50
Description: Human monocytic leukemia cell line THP-1 cells were cultured in RMPI 1640 medium (Gibco, Leiden, The Netherlands) supplemented with 10% heat-inactivated FBS, 5% penicillin/streptomycin, 1 mM HEPES, 2 mM glutamine at pH 7.2 at 36 °C and 5% CO2.
THP-1 cells were seeded at a concentration of 8 × 10^5 cells/mL in 96-well plates and incubated for 24 h with phorbol 12-myristate 13-acetate (PMA) (10 ng/mL) supplemented RPMI 1640 (Gibco, Leiden, The Netherlands). After 24 h, the culture medium was removed, and the cells were treated with the synthesized compounds at different concentrations ranging from 1–500 μM at 37 °C and 5% CO2. After this time, the MTT assay was performed. The cytotoxic concentration values (CC50) were obtained by fitting the data to a sigmoid dose-inhibition curve using GraphPad Prism 7.0 software (GraphPad Software Inc., San Diego, CA, USA). MIL and PMN were used as reference drugs for comparison.

L. major promastigotes = test: Leishmanicidal activity against L. major promastigotes (MTT assay); type: cell-based, Leishmania major; conditions: for IC50: Leishmania major, L. major promastigotes, 48 h incubation, MTT
Description: as §1, §2

[4] = Leishmania infantum, 48 h, L. infantum promastigotes, 48 h incubation, MTT, compound alone, read-out: IC50

Structure (SMILES)	IC50 [1, 4] [µM]	Effect ([2]; combination with AmB)	ƩFICI50 ([2]; combination with AmB)	Effect ([2]; combination with MIL)	ƩFICI50 ([2]; combination with MIL)	Effect ([2]; combination with PMN)	ƩFICI50 ([2]; combination with PMN)	CC50 at 48 h [3] [µM]	IC50 (L. major promastigotes) [µM]	other results
CCCCCCC(=O)[Se]CC(=O)O [A4, 2-(heptanoylselanyl)acetic acid]	< 40	Non interaction (non-interaction as 0.5 < FICI < 4)	0.71	Non interaction (non-interaction as 0.5 < FICI < 4)	0.68	Non interaction (non-interaction as 0.5 < FICI < 4)	0.68	173 ± 8.6		ƩFICI [2]: > 0.60
O=C(O)C[Se]C(=O)C1CC1 [A5, 2-((cyclopropanecarbonyl)selanyl)acetic acid]	< 40	Non interaction (non-interaction as 0.5 < FICI < 4)	0.70	Non interaction (non-interaction as 0.5 < FICI < 4)	0.98	Non interaction (non-interaction as 0.5 < FICI < 4)	0.61	211 ± 9.3	113	ƩFICI [2]: > 0.60
O=C(O)C[Se]C(=O)C1CCC1 [A6, 2-((cyclobutanecarbonyl)selanyl)acetic acid]		Non interaction (non-interaction as 0.5 < FICI < 4)	0.70	Synergy (synergy was defined as FICI < 0.5)	0.44	Non interaction (non-interaction as 0.5 < FICI < 4)	0.54	178 ± 10.2		fold more selective than MIL ([1]; L. infantum, from SI values): 28 fold; fold more selective than PMN ([1]; L. infantum, from SI values): 5 fold; times more selective than MIL (L. major promastigotes; L. major, from SI values): 15; times more selective than PMN (L. major promastigotes; L. major, from SI values): 5
O=C(O)C[Se]C(=O)C1CCCCC1 [A8, 2-((cyclohexanecarbonyl)selanyl)acetic acid]	< 40	Non interaction (non-interaction as 0.5 < FICI < 4)	0.52	Synergy (synergy was defined as FICI < 0.5)	0.40	Non interaction (non-interaction as 0.5 < FICI < 4)	0.52	147 ± 12.5		IC50 ([1]; L. infantum promastigotes, 48 h incubation, MTT, compound alone, read-out: IC50): 39.9 µM
O=C(O)CSC(=O)C1CC1 [B5, 2-((cyclopropanecarbonyl)thio)acetic acid]	87.6									
CCCCCCC(=O)[Se]CC(=O)OC [C4, Methyl 2-(heptanoylselanyl)acetate]										IC50 ([1]; Leishmania infantum, 48 h): 116 µM
CCCCCCC(=O)SCC(=O)OC [D4, Methyl 2-(heptanoylthio)acetate]	79.2								87.3	
COC(=O)CSC(=O)C1CC1 [D5, Methyl 2-((cyclopropanecarbonyl)thio)acetate]	68.7								81.8	
COC(=O)CSC(=O)C1CCC1 [D6, Methyl 2-((cyclobutanecarbonyl)thio)acetate]	95.3								83.4	
CCCCCCCCCCCCCCCCOP(=O)([O-])OCC[N+](C)(C)C [MIL, miltefosine, reference compound]	31.9							13.3 ± 2.8		
NC[C@@H]1O[C@H](O[C@H]2[C@@H](O)[C@H](O[C@@H]3[C@@H](O)[C@H](N)C[C@H](N)[C@H]3O[C@H]3O[C@H](CO)[C@@H](O)[C@H](O)[C@H]3N)O[C@@H]2CO)[C@H](N)[C@@H](O)[C@@H]1O [PMN, paromomycin, reference compound]								39 ± 13.7		
